Source: patent US7125911B2, “Autonomic nerve regulating agent” (Kao Corporation, priority 2000, dated 2006)

Columns and labels:
[1] = Vapor pressure of purified cedrol by static method and gas flow method; assay type: physicochemical; conditions: ambient temperature (unheated)
Experimental: The vapor pressure of purified cedrol (molecular weight 222 g·mol^−1) used in the following examples was determined by a static method and a gas flow method (temperature: 22, 50, and 75° C. for solids; 100 and 125° C. for liquids).
In the static method, samples were taken from hermetically sealed containers, a constant temperature was established, and the equilibrium vapor pressure at that temperature was directly measured using a pressure gauge (OECD Test Guidelines 104: Static Measurement of Vapor Pressure).
In the gas flow method, carrier gas (nitrogen gas) was allowed to flow so as to come into contact with a solid or liquid sample at a certain temperature to saturate the sample vapor, and the vapor density (vaporization quantity/volume) was measured so as to determine the vapor pressure hypothetically in accordance with ideal gas principles. The vapor density herein referred to is calculated from the sample vaporization rate (rate of loss) determined using an electrical balance, and the carrier gas flow rate determined using a flow rate gauge. However, since the sample vapor saturation is usually incomplete, the vapor density level is dependent on flow rate, so the vapor density was measured at varying flow rates for extrapolation to a zero flow rate to determine the saturated vapor density. […]

[2] = tested on: women in their twenties complaining of fatigue (sympathetic overactivity); test: Inhalation of cedrol for 30 seconds with ECG, blood pressure and respiration monitoring (Example 1); assay type: in vivo, human; conditions: after vs before inhalation, 10 wt % in dipropylene glycol, significance 5%
Experimental: The subjects were ten women in their twenties complaining of fatigue (sympathetic overactivity), who were asked to inhale, for 30 seconds, cedrol dissolved in dipropylene glycol (10 wt % concentration), while ECG at rest (chest V5 lead), blood pressure (tonometry), and respiration (pulmonary volume instantaneously measured by respiratory rate sensor) were monitored. The changes in parameters before and after measurement were compared. Frequency analysis of R—R interval fluctuations was performed for low frequency components integrating amplitudes 0.02 to 0.12 Hz (sum of low frequency: Lsum) and high frequency components integrating amplitudes 0.12 to 2.00 Hz (sum of high frequency: Hsum) using the rapid Fourier transform. As used here, the Hsum is an indicator of parasympathetic nervous activity, and the Lsum/Hsum is an indicator of sympathetic nervous activity.
The measurement results were statistically analyzed by Welch's t-test or Student's t-test based on the F test.

[3] = tested on: women in their twenties suffering from poor sleep; test: Sleep monitoring with cedrol vaporized in the room from bedtime until waking (Example 3); assay type: in vivo, human; conditions: significance 5%
Experimental: The subjects were ten women in their twenties suffering from poor sleep. ECG (chest V5 lead), brain waves (C3, O1 in the international 10–20 method), respiration (impedance method: abdomen and chest), superficial electromyogram (bipolar lead of left and right mentalis muscles), and ocular movement (bipolar lead without horizontally linking left and right eye-sockets) were monitored from the time the subjects went to bed until they woke in a 40 m^2 room. The cedrol was administered by placing Petri dishes filled with cedrol on 95° C. hot plates so that approximately 100 mg was vaporized per hour (about 1 ppb/hr), from the time subjects went to bed until they woke. Measurements were taken for 7 days. No administration took place on the first two days, in order to allow subjects to become acclimated to the measuring instruments and environment (control). On the third day, administration was managed without anything placed on the hot plates (placebo). After 3 days, cedrol was administered on the 7th day.
The subjects were interviewed about their condition on waking using a questionnaire based on POMS (profile of mood states) to assess mood. The changes in the parameters measured during the administration of cedrol and placebo treatment were compared.
Awakening and sleep stages were determined in accordance with international standards for determining sleep stages (Sleep Brain Wave Atlas, pp. 3–9, Ishiyaku Shuppan KK, published September, 1971, the relevant portions thereof which describe sleep analysis and standards are incorporated herein by reference). Frequency analysis of R—R interval fluctuations and statistical analysis of the measurement results were done in the same manner as in Example 1.

[4] = tested on: insomniac women in their fifties; test: Sleep in a room with furnishings and bedding coated with cedrol, actigram assessment (Example 7); assay type: in vivo, human; conditions: furnishings and bedding coated with cedrol 1.5 μg/cm^2, 15th to 21st days, vs control week; p<0.01
Experimental: The subjects were twenty insomniac women in their fifties, while sleep was assessed from 3 hours before bed until wakening for 4 weeks in a room (sleeping room) at a temperature of 23° C. and a humidity of 50%. The first week served as a control. For the last 3 weeks, the test was conducted by replacing the curtains, wall paper, flooring, pillows, sheets, and bedding with those which had been coated with cedral (1.5 μg/cm^2).
The subjects ware actigrams for 4 continuous weeks on the opposite of their leading arm to allow assessment of the sleeping efficiency and intermittent awakening. Analyzed data for the cedrol coatings were from the 15th to 21st days following application.
Statistical analysis of the measurement results was the same as in Example 5.

[5] = tested on: insomniac women in their twenties (parasympathetic predominance to excess); test: Inhalation of cedrol for 30 seconds with ECG, blood pressure and respiration monitoring (Example 2); assay type: in vivo, human; conditions: after vs before inhalation, insomniac subjects
Description: The subjects were ten insomniac women in their twenties (under considerable pressure to get to sleep, with parasympathetic predominance to excess), who were asked to inhale, for 30 seconds, cedrol dissolved in dipropylene glycol (10 wt % concentration), while ECG at rest (chest V5 lead), blood pressure (tonometry), and respiration (pulmonary volume instantaneously measured by respiratory rate sensor), and skin blood flow of forehead (measured by laser Doppler methods) were monitored. The changes in parameters before and after measurement were compared. Frequency analysis of R—R interval fluctuations and statistical analysis of the measurement results were done in the same manner as in Example 1.

[6] = 7th day (cedrol) vs before administration and 3rd day (placebo treatment)
[7] = cedrol approximately 100 mg vaporized per hour vs placebo treatment
[8] = within physiologically normal range, significance 5%

vapor pressure (vaporizability) [1]: can be vaporized at ambient temperature
SMILES: C[C@@H]1CC[C@H]2C(C)(C)[C@H]3C[C@@]12CC[C@@]3(C)O [cedrol]
ECG R-R interval [2]: meaningfully longer | Hsum (parasympathetic nervous activity indicator) [2]: meaningfully greater | Lsum/Hsum (sympathetic nervous activity indicator) [2]: meaningfully lower | diastolic blood pressure (DBP) [2]: meaningfully lower | respiratory rate (RR) [2]: meaningfully lower | systolic blood pressure (SBP) [2]: meaningfully lower | POMS fatigue [3, 6]: meaningful (5%) improvement | POMS tension [3, 6]: meaningful (5%) improvement | Hsum during non-REM sleep ([3]; cedrol approximately 100 mg vaporized per hour (about 1 ppb/hr) vs placebo treatment): meaningfully increased | cumulative incidence of stages 3 and 4 of sleep [3, 7]: meaningfully greater | respiratory rate (RR) during non-REM sleep [3, 7]: meaningfully lower | intermittent awakening [4]: meaningfully fewer | sleeping efficiency [4]: meaningfully better | ECG R-R interval [5]: no meaningful change | Hsum [5]: tended to be lower | Lsum/Hsum [5]: tended to be higher | respiratory rate (RR) [5]: no meaningful difference | diastolic blood pressure (DBP) [5, 8]: meaningfully higher | systolic blood pressure (SBP) [5, 8]: meaningfully higher
